Assay: A: acetonitrile + 0.1% formic acid + 10 mM ammonium formate; B: 5% water + 95% acetonitrile + 0.1% formic acid + 10 mM ammonium formate; gradient (min/%B) 0/10 2/10 22/100 27/100 27.1/10
Details: stereoisomer not certain

Row | SMILES | LC retention time [min]
1 | CC(CN1c2ccccc2Sc2ccccc21)N(C)C (stereo not drawn) [Promethazine] | 0.952
2 | COc1ccc2[nH]cc(CCNC(C)=O)c2c1 [Melatonin] | 0.468
3 | CC(=O)NCCCCCN [N-(5-Aminopentyl)acetamide] | 4.61
4 | CCOC(=O)CCC(=O)OCC [Diethyl succinate] | 0.425
5 | CC(C)CCCC(C)C1CCC2C3CCC4=CC(=O)CCC4(C)C3CCC12C (single isomer, unassigned; (+)) [(+)-4-Cholesten-3-one] | 0.407
6 | CC(=O)OCC(=O)C12OC3(CCCC3)OC1CC1C3CCC4=CC(=O)C=CC4(C)C3(F)C(O)CC12C (stereo not drawn) [Amcinonide] | 0.433
7 | CCOC(=O)CC(=O)OCC [Diethyl malonate] | 0.43
8 | NCC(N)C(=O)O (racemic) [DL-2,3-Diaminopropionic acid] | 7.79
9 | CCN(CC)CCNC(=O)c1ccc(N)cc1 [Procainamide] | 2.3
10 | CN(C)CC(=O)O [N,N-Dimethylglycine] | 5.8
11 | O=C(c1ccc(OCCN2CCCCC2)cc1)c1c(-c2ccc(O)cc2)sc2cc(O)ccc12 [Raloxifene] | 1.42
12 | O=P(O)(O)OCC1OC(O)C(O)C(O)C1O [D-Glucose 6-phosphate] | 7.76
13 | c1coc(Cn2cccc2)c1 [1-Furfurylpyrrole] | 0.425
14 | CC(=O)NC(CO)C(=O)O (racemic) [N-Acetyl-DL-serine] | 5.82
15 | NC(CSCC(=O)O)C(=O)O (stereo not drawn) [Carbocysteine] | 6.96
16 | CC(=O)NCCCCNCCCN [N8-Acetylspermidine] | 7.25
17 | CCOC(=O)CC(C)=O [Ethyl acetoacetate] | 0.418
18 | CC(C)[C@H](N)C(=O)O [L-Valine] | 5.92
19 | COC(=O)Cc1c[nH]c2ccccc12 [Methyl 3-indolyacetate] | 0.431
20 | CN(C)CCOc1ccc(C(=C(CCCl)c2ccccc2)c2ccccc2)cc1 [Toremifene] | 0.772
21 | O=C(O)CNC(=O)CCc1ccccc1 [N-(3-Phenylpropionyl)glycine] | 1.25
22 | O=C(O)Cc1ccccc1Nc1c(Cl)cccc1Cl [Diclofenac acid] | 0.456
23 | O=C(O)C=CCCCCCCCCC(=O)O [Traumatic acid] | 0.561
24 | CCCC[C@H](N)C(=O)O [L-Norleucine] | 4.99

Row | SMILES | LC retention time [min]
25 | Cc1cn(C2OC(CO)C(O)C2O)c(=O)[nH]c1=O (stereo not drawn) [5-Methyluridine] | 1.78
26 | O=C(O)c1ccc2ccccc2n1 [Quinaldic acid] | 1.48
27 | CSCC[C@H](N)C(=O)O [L-Methionine] | 5.97
28 | CC(=O)N[C@@H](Cc1ccc(O)cc1)C(=O)O [N-Acetyl-L-tyrosine] | 2.85
29 | CNC(=C[N+](=O)[O-])NCCSCc1csc(CN(C)C)n1 [Nizatidine] | 3.03
30 | CC(C)CC(=O)NCC(=O)O [N-Iso valerylglycine] | 1.63
31 | O=C(O)CCCCCCCC(=O)O [Azelaic acid] | 0.604
32 | c1ncc2[nH]cnc2n1 [Purine] | 1.01
33 | CN(CC(=O)O)C(=N)N [Creatine] | 6.15
34 | CN1CC(=O)NC1=N [Creatinine] | 2.58
35 | O=c1[nH]c(=O)c2ncn(C3OC(COP(=O)(O)O)C(O)C3O)c2[nH]1 (stereo not drawn) [Xanthosine 5'-monophosphate] | 7.42
36 | CN(C)CCC=C1c2ccccc2COc2ccccc21 [Doxepin] | 1.04
37 | O=c1[nH]c(=O)c2ncn(C3OC(CO)C(O)C3O)c2[nH]1 (stereo not drawn) [Xanthosine] | 5.1
38 | O=c1ccn(C2CC(O)C(CO)O2)c(=O)[nH]1 (stereo not drawn) [2'-Deoxyuridine] | 1.23
39 | CC(=O)N[C@@H](CCCN)C(=O)O [N-Acetyl-L-ornithine] | 6.58
40 | O=c1ccn(C2OC(COP(=O)(O)O)C(O)C2O)c(=O)[nH]1 (stereo not drawn) [Uridine-5'-phosphoric acid] | 6.86
41 | NC(=O)c1ccccc1O [Salicylamide] | 0.448
42 | CN(CC(=O)O)C(N)=NP(=O)(O)O [Creatine phosphate] | 7.86
43 | Cc1cn(C2CC(O)C(CO)O2)c(=O)[nH]c1=O (stereo not drawn) [Thymidine] | 1.04
44 | O=C1CCNC(=O)N1 [Dihydrouracil] | 0.746
45 | NC[C@@H](O)CC(=O)O [(S)-(+)-4-Amino-3-hydroxybutyric acid] | 6.5
46 | CC12C=CC(=O)C=C1CCC1C3CC(O)C(O)(C(=O)CO)C3(C)CC(O)C12F (stereo not drawn) [Triamcinolone] | 0.499
47 | O=C(C=Cc1ccc(O)c(O)c1)OC1CC(O)(C(=O)O)CC(O)C1O (stereo not drawn) [Chlorogenic acid] | 4.76
48 | CC(=O)Nc1ccc(O)cc1 [4-Acetamidophenol] | 0.477

Row | SMILES | LC retention time [min]
49 | O=c1ccc2ccccc2o1 [Coumarin] | 0.431
50 | CNCCC(Oc1ccccc1C)c1ccccc1 (stereo not drawn) [Atomoxetine] | 1.02
51 | Cn1cnc2[nH]c(=O)[nH]c(=O)c21 [7-Methylxanthine] | 1.37
52 | CNC(CC(C)C)C(=O)NC1C(=O)NC(CC(N)=O)C(=O)NC2C(=O)NC3C(=O)NC(C(=O)NC(C(=O)O)c4cc(O)cc(O)c4-c4cc3ccc4O)C(O)c3ccc(c(Cl)c3)Oc3cc2cc(c3OC2OC(CO)C(O)C(O)C2OC2CC(C)(N)C(O)C(C)O2)Oc2ccc(cc2Cl)C1O (stereo not drawn) [Vancomycin] | 8.2
53 | CCC[C@H](N)C(=O)O [L-Norvaline] | 5.65
54 | CC1OC(OC2C(CO)OC(OC3C(CO)OC(O)C(O)C3O)C(O)C2O)C(O)C(O)C1NC1C=C(CO)C(O)C(O)C1O (stereo not drawn) [Acarbose] | 8.07
55 | O=C(O)CNC(=O)c1cccnc1 [Nicotinuric acid] | 5.19
56 | CC(=O)NC(CCC(=O)O)C(=O)O (stereo not drawn) [N-Acetylglutamic acid] | 5.85
57 | O=c1[nH]cnc2[nH]ncc12 [Allopurinol] | 0.996
58 | CC(C)(C)NCC(O)c1ccc(O)c(CO)c1 (stereo not drawn) [Salbutamol] | 3.16
59 | NCCOP(=O)(O)O [O-Phosphorylethanolamine] | 7.28
60 | N[C@@H](CSSC[C@H](N)C(=O)O)C(=O)O [L-Cystine] | 8.16
61 | NCC(=O)CCC(=O)O [5-Aminolevulinic acid] | 5.89
62 | CC(=O)N[C@@H](CC(C)C)C(=O)O [N-Acetyl-L-leucine] | 1.18
63 | O=c1ccc2cc(OC3OC(CO)C(O)C(O)C3O)c(O)cc2o1 (stereo not drawn) [Esculin] | 2.52
64 | C=CC1=C(C)C(=Cc2[nH]c(Cc3[nH]c(C=C4NC(=O)C(C)=C4C=C)c(C)c3CCC(=O)O)c(CCC(=O)O)c2C)NC1=O [Bilirubin] | 0.518
65 | O=c1[nH]cnc2nc[nH]c12 [Hypoxanthine] | 2.29
66 | O=c1c(-c2ccc(O)cc2)coc2cc(O)cc(O)c12 [Genistein] | 0.458
67 | CC(=O)C1(O)CCC2C3CCC4=CC(=O)CCC4(C)C3CCC21C (stereo not drawn) [17-alpha-Hydroxyprogesterone] | 0.437
68 | Nc1nc2c(ncn2C2OC(COP(=O)(O)O)C(O)C2O)c(=O)[nH]1 (stereo not drawn) [Guanosine 5'-monophosphate] | 7.36
69 | OCC1OC(OC2(CO)OC(CO)C(O)C2O)C(O)C(O)C1O (stereo not drawn) [Sucrose] | 6.27
70 | CN(C)CCCN1c2ccccc2CCc2ccccc21 [Imipramine] | 0.939
71 | NC(=O)NC(NC(N)=O)C(=O)O [Allantoic acid] | 6.54
72 | O=C(O)CNC(=O)c1ccc(O)cc1 [2-[(4-Hydroxyphenyl)formamido]acetic acid] | 3.64

Row | SMILES | LC retention time [min]
73 | NC(N)=NCCCC[C@H](N)C(=O)O [L-Homoarginine] | 7.39
74 | C[N+](C)(C)CC(=O)[O-] [Betaine] | 5.7
75 | Cc1ncc(COP(=O)(O)O)c(C=O)c1O [Pyridoxal 5'-phosphate] | 5.97
76 | NCCC(=O)NC(Cc1cnc[nH]1)C(=O)O [L-Carnosine] | 7.75
77 | COc1cc(C=CC(=O)O)cc(OC)c1O [Sinapic acid] | 0.561
78 | COc1cc(OC)cc(OC)c1 [1,3,5-Trimethoxybenzene] | 0.423
79 | COc1cccc(OC)c1C(=O)O [2,6-Dimethoxybenzoic acid] | 0.628
80 | Cn1cncc1C[C@H](N)C(=O)O [3-Methyl-L-histidine] | 7.74
81 | CCCCCCCCCCCCOC(=O)c1cc(O)c(O)c(O)c1 [Lauryl gallate] | 0.455
82 | Cc1cc2nc3c(=O)[nH]c(=O)nc-3n(CC(O)C(O)C(O)COP(=O)(O)OP(=O)(O)OCC3OC(n4cnc5c(N)ncnc54)C(O)C3O)c2cc1C (stereo not drawn) [Flavin Adenine Dinucleotide] | 7.38
83 | O=C(O)CCCCCCC(=O)O [Suberic acid] | 0.712
84 | O=C1CCc2ccc(OCCCCN3CCN(c4cccc(Cl)c4Cl)CC3)cc2N1 [Aripiprazole] | 1.25
85 | CNC(=C[N+](=O)[O-])NCCSCc1ccc(CN(C)C)o1 [Ranitidine] | 3.12
86 | CC(=O)c1c(O)cc(C)oc1=O [DehydroacetIc acid] | 0.444
87 | O=C(C=CC=Cc1ccc2c(c1)OCO2)N1CCCCC1 [Piperine] | 0.44
88 | CC(=O)NC(CCC(N)=O)C(=O)O [N-alpha-Acetyl-L-glutamine] | 5.85
89 | Nc1ccnc(=O)[nH]1 [Cytosine] | 3.35
90 | O=C(O)Cc1cnc[nH]1 [Imidazole-4(5)-acetic Acid] | 6.1
91 | Nc1ncnc2c1ncn2C1OC(COP(=O)(O)OP(=O)(O)O)C(O)C1O (stereo not drawn) [Adenosine 5'-diphosphate] | 9.46
92 | Nc1nc2c(ncn2COC(CO)CO)c(=O)[nH]1 [Ganciclovir] | 4.73
93 | O=c1cc(-c2ccc(O)c(O)c2)oc2cc(O)cc(O)c12 [Luteolin] | 0.593
